Here are results for 4 compounds from patent US9062066B2, “Anti-inflammatory compound having inhibitory activity against multiple tyrosine kinases and pharmaceutical composition containing same” (KOREA INSTITUTE OF SCIENCE AND TECHNOLOGY, priority 2010, dated 2015).

Each structure is given as a SMILES string. Where two headings read alike, the source gives them in different places.

The test system of assay [1] is house mite allergic substance-induced asthma in mice. Nature of the assay: house mite allergen asthma animal model. The format is in vivo. Conditions: for mucin in lung tissue (periodic Schiff staining): 20 ul intratracheal, LCB 03-0110 0.1%, Budesonide 0.03%.
The subject of assay [2] is full excisional ear wounds in New Zealand white rabbits. Conditions: 0.1% topical.
Assay [3] concerns IL-12 synthesis in J774A.1 macrophage. In words: cells. Particulars: Mus musculus, J774.A1, read-out: inhibition of LPS-induced IL-12 synthesis.
Assay [4] has as its system RBL-2H3 mast cells. Nature of the assay: cells. Conditions: Rattus norvegicus, RBL-2H3, read-out: inhibition of hexosaminidase release (degranulation).
For assay [5], the target named is Fgr tyrosine kinase (Homo sapiens (Human), UniProt P09769). In words: in vitro Fgr tyrosine kinase inhibition. Type of assay: biochemical. Conditions: read-out: % inhibition against Fgr.
Sequence of Fgr tyrosine kinase (P09769 whole entry, the tested form may be a part): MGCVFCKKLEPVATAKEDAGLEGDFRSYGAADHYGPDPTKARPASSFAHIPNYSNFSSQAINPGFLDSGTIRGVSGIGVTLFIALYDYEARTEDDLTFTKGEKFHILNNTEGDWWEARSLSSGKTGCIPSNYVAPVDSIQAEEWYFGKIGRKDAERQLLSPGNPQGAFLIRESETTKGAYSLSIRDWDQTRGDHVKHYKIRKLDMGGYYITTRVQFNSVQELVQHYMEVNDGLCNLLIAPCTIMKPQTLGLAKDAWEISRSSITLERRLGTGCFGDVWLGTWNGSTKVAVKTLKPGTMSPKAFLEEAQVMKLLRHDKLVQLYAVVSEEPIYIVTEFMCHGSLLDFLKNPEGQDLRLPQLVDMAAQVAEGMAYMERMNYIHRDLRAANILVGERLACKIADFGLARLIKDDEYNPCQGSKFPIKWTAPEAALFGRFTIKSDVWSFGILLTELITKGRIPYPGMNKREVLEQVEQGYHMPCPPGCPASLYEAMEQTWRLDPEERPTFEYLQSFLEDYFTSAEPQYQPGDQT
The target in assay [6] is DDR2 tyrosine kinase (Homo sapiens (Human), UniProt Q16832). In words: in vitro DDR2 tyrosine kinase inhibition (GST-fused kinase domain). The format is biochemical. Particulars: read-out: % inhibition against DDR2.
Sequence of DDR2 tyrosine kinase (Q16832 563-849): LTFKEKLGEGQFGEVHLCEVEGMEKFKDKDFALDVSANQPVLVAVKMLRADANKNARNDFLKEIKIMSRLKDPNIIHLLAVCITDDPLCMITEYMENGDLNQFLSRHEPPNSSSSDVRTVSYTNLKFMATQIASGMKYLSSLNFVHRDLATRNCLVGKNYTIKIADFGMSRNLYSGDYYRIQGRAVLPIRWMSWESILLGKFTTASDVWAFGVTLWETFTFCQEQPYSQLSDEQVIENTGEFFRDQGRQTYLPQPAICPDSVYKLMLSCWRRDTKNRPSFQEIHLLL
In assay [7] the target is Hck tyrosine kinase (Homo sapiens (Human), UniProt P08631). Nature of the assay: in vitro Hck tyrosine kinase inhibition. Particulars: read-out: % inhibition against Hck. The format is biochemical.
Sequence of Hck tyrosine kinase (P08631 whole entry): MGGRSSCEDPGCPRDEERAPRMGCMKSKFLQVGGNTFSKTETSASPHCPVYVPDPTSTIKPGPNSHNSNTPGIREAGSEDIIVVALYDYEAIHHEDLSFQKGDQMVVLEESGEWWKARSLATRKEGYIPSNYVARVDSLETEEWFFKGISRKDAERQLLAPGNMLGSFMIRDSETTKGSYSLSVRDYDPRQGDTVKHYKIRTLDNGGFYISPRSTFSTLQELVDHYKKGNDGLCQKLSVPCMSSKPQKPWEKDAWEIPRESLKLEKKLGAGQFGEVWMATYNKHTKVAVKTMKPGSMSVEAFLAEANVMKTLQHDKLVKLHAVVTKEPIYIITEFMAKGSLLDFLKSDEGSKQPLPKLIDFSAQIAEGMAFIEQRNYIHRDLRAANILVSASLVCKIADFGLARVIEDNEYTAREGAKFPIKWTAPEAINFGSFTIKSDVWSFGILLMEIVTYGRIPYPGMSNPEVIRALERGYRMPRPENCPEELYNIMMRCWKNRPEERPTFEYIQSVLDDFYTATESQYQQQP
The test system of assay [8] is NO synthesis in J744A.1 macrophage. Nature of the assay: inhibition of nitric oxide (NO) synthesis in LPS-activated macrophages (Griess reagent). The format is cell-based. Conditions: 24 h, read-out: Inhibition (%) of NO synthesis. Background: Nitrite, measured by Griess reagent, commonly stands in for NO production.
The target in assay [9] is DDR1 tyrosine kinase (Homo sapiens (Human), UniProt Q08345). In words: in vitro DDR1 tyrosine kinase inhibition (GST-fused kinase domain). Type of assay: biochemical. Conditions: read-out: % inhibition against DDR1.
Sequence of DDR1 tyrosine kinase (Q08345 610-905): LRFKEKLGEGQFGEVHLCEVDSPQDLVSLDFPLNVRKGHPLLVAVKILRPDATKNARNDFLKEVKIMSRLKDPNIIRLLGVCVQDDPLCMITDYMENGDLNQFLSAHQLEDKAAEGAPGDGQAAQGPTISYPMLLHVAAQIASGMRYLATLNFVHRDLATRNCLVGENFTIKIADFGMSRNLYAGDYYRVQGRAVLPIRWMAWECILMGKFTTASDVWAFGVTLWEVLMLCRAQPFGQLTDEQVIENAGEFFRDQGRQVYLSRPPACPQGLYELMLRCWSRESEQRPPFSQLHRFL
In assay [10] the test system is α-smooth muscle actin protein expression in skin fibroblast cells. In words: inhibition of α-smooth muscle actin expression in fibroblast activated by type I collagen and TGF-β1 (western blotting). Particulars: Mus musculus, read-out: Inhibition (%) of α-smooth muscle actin increase. The format is cell-based, Balb/C mouse. The procedure, abridged:
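α-Smooth muscle actin protein was detected by western blotting with chemiluminescence on X-ray film. Levels were quantified by densitometry of the band.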
In general terms: Immunoblotting shows a protein as a band on a membrane.

For assay [11], the system named is oxazolone-induced skin inflammation of Balb/C mouse ears. Nature of the assay: mouse skin inflammatory model induced by oxazolone (ear thickness). The format is in vivo. The method, boiled down:
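Oxazolone was used to induce skin inflammation in the ears of 8-week-old Balb/C mice. Ear thickness was measured by caliper before induction, again at 36 h to capture inflammatory swelling, and averaged per group (n=4).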

The test system of assay [12] is TNF-α synthesis in J744A.1 macrophages. Nature of the assay: inhibition of TNF-α synthesis in LPS-activated macrophages (ELISA). The format is cell-based. Particulars: Macrophage, 6 h, read-out: Inhibition (%) of TNF-α synthesis. For orientation: An ELISA detects its analyte on a solid surface through an enzyme-linked reagent.
Assay [13] concerns TNCB-induced atopic dermatitis in Nc/Nga mice. Particulars: 0.1% transdermal every day for two weeks.
The target of assay [14] is Lyn tyrosine kinase (Homo sapiens (Human), UniProt P07948). Nature of the assay: in vitro Lyn tyrosine kinase inhibition. Type of assay: biochemical. Particulars: read-out: % inhibition against Lyn.
Sequence of Lyn tyrosine kinase (P07948 whole entry): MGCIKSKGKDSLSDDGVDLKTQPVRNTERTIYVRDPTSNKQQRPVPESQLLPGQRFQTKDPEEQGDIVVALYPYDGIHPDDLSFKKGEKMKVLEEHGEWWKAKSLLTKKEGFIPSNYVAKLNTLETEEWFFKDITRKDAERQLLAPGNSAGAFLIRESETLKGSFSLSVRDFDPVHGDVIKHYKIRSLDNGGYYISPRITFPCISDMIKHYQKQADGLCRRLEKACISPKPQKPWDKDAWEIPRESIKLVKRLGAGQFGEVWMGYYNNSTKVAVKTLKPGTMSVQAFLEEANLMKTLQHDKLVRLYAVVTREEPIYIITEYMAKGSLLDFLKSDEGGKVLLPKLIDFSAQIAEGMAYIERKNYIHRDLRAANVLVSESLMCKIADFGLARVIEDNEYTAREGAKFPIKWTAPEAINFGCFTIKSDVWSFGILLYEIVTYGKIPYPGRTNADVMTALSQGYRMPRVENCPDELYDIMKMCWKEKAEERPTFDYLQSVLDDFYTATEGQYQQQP
The subject of assay [15] is mouse skin fibroblast. Nature of the assay: inhibition of migration of activated fibroblast (scratch wound). The format is cell-based. Conditions: 0.5 uM compound, 10 ng/ml TGF-β1, 24 hours, read-out: Inhibition (%) of migration of activated fibroblast. The procedure, abridged: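 Scratch wound was made on a fibroblast monolayer, then cells were kept in DMEM with 10 ng/ml TGF-β1 at 37° C for 24 hours. After formalin fixation and crystal violet staining, cells that had moved into the wound were counted at 100× in five random fields and averaged.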

For assay [16], the target named is c-Src tyrosine kinase (Homo sapiens (Human), UniProt P12931). Nature of the assay: in vitro c-Src tyrosine kinase inhibition (32P-ATP, poly(D4Y)n substrate). Type of assay: biochemical. Conditions: 1 uM compound; read-out: % inhibition against c-Src.
Sequence of c-Src tyrosine kinase (P12931 whole entry, looked up): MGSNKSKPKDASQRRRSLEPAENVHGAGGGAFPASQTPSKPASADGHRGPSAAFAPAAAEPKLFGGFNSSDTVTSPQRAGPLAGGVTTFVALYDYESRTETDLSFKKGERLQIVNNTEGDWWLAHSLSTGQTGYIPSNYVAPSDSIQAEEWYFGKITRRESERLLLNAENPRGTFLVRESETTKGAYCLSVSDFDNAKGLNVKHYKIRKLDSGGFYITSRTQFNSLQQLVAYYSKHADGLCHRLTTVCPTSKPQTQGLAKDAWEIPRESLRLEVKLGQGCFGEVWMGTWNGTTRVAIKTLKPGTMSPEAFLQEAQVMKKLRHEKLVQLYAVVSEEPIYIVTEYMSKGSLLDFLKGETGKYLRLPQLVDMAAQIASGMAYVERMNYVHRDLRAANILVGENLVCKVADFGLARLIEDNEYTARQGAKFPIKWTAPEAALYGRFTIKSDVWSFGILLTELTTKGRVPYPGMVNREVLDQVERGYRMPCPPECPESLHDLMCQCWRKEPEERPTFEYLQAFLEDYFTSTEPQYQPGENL
Setting [17] is: 0.5 uM compound, 10 ng/ml TGF-β1, 48 hours, type I collagen.
Setting [18] is: 20 ul of 0.1% compound topical on ear, 36 hours after oxazolone.

Regarding `CCCC1O[C@@H]2C[C@H]3[C@@H]4CCC5=CC(=O)C=C[C@]5(C)[C@H]4[C@@H](O)C[C@]3(C)[C@]2(C(=O)CO)O1` (stereo partly shown) [Budesonide, reference compound], the “mucin in lung tissue (periodic Schiff staining)” value in assay [1] is given as “decreased the extent of the staining”.

With `Oc1cccc(Nc2ccnc3cc(-c4cccc(CN5CCOCC5)c4)sc23)c1` [LCB 03-0110, 3-(2-(3-(morpholinomethyl)phenyl)thieno[3,2-b]pyridin-7-ylamino)phenol], in [2] (150 μL per wound, every three days, versus carrier solution), the wound closing rate entry is on record as “closed at a higher rate”. In addition, the “macrophages (F4/80) and activated myoblast cells (alpha smooth muscle actin) in wound tissue” value in [2] (three days after wounding) was “suppressed the activation of macrophages and myoblast cells with a statistical significance”. The inhibition at 1 µM in assay [3] is approximately 100%; in assay [5], more than 80%; in [6] it was more than 90%; in assay [7] it was more than 80%; in [9] it was more than 90%; in assay [14], more than 90%. For the same compound, in assay [4], the inhibition at 0.3 µM was not below 80%. Besides, the inhibition at 10 µM in [8] came to 97%; in assay [12], 64%. In [10] (48 h), the inhibition at 0.5 µM stood at 82%. Moreover, in assay [11] (mouse, in vivo), the “Inhibition (%) of increase of ear thickness” value worked out at 72%. The “mucin in lung tissue (periodic Schiff staining)” value in [1] is “suppressed mucin synthesis similarly to the positive control”. The “eosinophil penetration into lung tissue” value in [1] (20 ul of 0.1% intratracheal) is on record as “suppressed eosinophil penetration into lung tissue”. Moreover, the “eotaxin in BALF” value in assay [1] (20 ul of 0.1% intratracheal) is “suppression of eotaxin”. The “reduction of epidermal thickness compared to the TNCB group” value in [13] is reported as “more than 60%”. In addition, in [13], the “reduction of mast cell count compared to the TNCB group” value was “approximately 25%”. For the same compound, in [13], the “reduction of serum IgE level compared to the TNCB group” value is given as “more than 20%”. For the same compound, in assay [13], the “reduction of transepidermal water loss (TEWL) compared to the TNCB group” value is listed as “more than 30%”.

With `Oc1cccc(Nc2ccnc3cc(-c4cccc(CN5CCNCC5)c4)sc23)c1` [LCB 03-0111, 3-(2-(3-(piperazin-1-ylmethyl)phenyl)thieno[3,2-b]pyridin-7-ylamino)phenol], the inhibition at 0.5 µM in assay [15] came out at 58%; in assay [10] (setting [17]) it was 79%. Besides, the inhibition at 1 µM in [5] (1 uM compound) is more than 80%; in assay [6] (1 uM compound) it was more than 90%; in assay [7] (1 uM compound), more than 80%; in [9] (1 uM compound) it was more than 90%; in assay [14] (1 uM compound), more than 80%; in assay [16], more than 80%. The inhibition at 10 µM in assay [8] was 92%; in [12] it was 57%. The “Inhibition (%) of increase of ear thickness” value in assay [11] (setting [18]) was 71%.

With `CCNCc1cccc(-c2cc3nccc(Nc4cccc(O)c4)c3s2)c1` [LCB 03-0112, 3-(2-(3-((ethylamino)methyl)phenyl)thieno[3,2-b]pyridin-7-ylamino)phenol], the inhibition at 0.5 µM came out at 38% in [15] and 71% in assay [10] (setting [17]). In addition, the inhibition at 1 µM in assay [5] (1 uM compound), in assay [6] (1 uM compound), in assay [7] (1 uM compound), in assay [9] (1 uM compound), in assay [14] (1 uM compound) and in assay [16] was more than 80% throughout. The inhibition at 10 µM in [8] worked out at 81%; in assay [12], 46%. Further, the “Inhibition (%) of increase of ear thickness” value in assay [11] (setting [18]) worked out at 68%.
